The target of assay [1] is T1, DDR2 (Homo sapiens, UniProt Q16832).
T1 sequence (Q16832 22-855): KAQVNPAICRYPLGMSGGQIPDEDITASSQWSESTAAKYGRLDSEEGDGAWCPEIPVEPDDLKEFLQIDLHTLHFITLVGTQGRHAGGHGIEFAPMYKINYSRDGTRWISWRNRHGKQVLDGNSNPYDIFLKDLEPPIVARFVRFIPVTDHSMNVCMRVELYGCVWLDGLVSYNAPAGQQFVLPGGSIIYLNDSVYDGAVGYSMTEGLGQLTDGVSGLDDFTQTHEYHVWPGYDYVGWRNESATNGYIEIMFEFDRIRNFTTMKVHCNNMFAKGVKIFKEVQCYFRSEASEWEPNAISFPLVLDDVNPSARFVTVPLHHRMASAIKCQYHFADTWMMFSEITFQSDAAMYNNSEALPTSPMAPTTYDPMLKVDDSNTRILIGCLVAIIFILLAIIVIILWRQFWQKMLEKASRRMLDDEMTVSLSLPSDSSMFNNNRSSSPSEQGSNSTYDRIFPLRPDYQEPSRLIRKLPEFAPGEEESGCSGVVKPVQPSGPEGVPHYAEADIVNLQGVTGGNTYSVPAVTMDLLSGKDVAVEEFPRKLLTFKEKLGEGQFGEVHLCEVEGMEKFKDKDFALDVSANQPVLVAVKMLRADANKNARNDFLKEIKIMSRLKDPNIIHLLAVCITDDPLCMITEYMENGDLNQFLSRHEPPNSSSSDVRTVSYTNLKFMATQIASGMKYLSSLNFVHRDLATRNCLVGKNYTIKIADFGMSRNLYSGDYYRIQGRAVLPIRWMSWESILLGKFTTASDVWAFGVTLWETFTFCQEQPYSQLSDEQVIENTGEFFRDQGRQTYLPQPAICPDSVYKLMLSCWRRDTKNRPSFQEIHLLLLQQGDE
The assay can be described thus: DDR2 binding assay (LanthaScreen Europium Kinase Binding assay). The arrangement: purchased Life Technologies. The conditions noted are these: binding assay, 5 nM DDR2, 10 nM Kinase Tracer 178; Ki from IC50 by Cheng-Prusoff; read-out: Ki DDR2. The essentials:
(§1)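 Compounds incubated 1 h at room temperature with 5 nM kinase, Kinase Tracer 178 (20 nM for DDR1, 10 nM for DDR2) and 2 nM Eu-anti-GST antibody in pH 7.5 HEPES/MgCl2/EGTA/BRIJ35 buffer. TR-FRET 665/615 nm ratio read after 340 nm excitation; IC50 from 4-parameter fit, converted to Ki by Cheng-Prusoff.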

In assay [2] the target is T2, DDR1 (Homo sapiens, UniProt Q08345). The assay can be described thus: DDR1 cell based assay (PathHunter U2OS DDR1 assay). The arrangement: host or cells: U2OS-DDR1 (PathHunter). The following applies: U2OS-DDR1 cells, bovine Type II Collagen 20 μg/ml. The essentials:
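U2OS-DDR1 PathHunter cells preincubated 30 min with compound, then stimulated overnight at 37 °C with 20 μg/ml bovine type II collagen. Luminescent complementation signal read after 1 h detection at room temperature; normalized to vehicle (0%) and collagen-only (100%) controls, IC50 from variable-slope sigmoidal fit.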

The target of assay [3] is T1, DDR2. Nature of the assay: DDR2 cell based assay (phospho-ELISA in HEK293T-DDR2 recombinant cells). The arrangement: expressed in transfected cells; host or cells: HEK293T-DDR2 recombinant cells. The conditions noted are these: bovine Type II Collagen 50 μg/ml. On the procedure:
The inhibition of DDR2 phosphorylation by compounds was evaluated in HEK293T-DDR2 recombinant cells by phospho-ELISA assay. Briefly, HEK293T-DDR2 cells were seeded in poly-D-lysine-coated 24-well plates at a density of 250.000 cells/well and incubated for 1.5 hours at 37° C. and 5% CO2 in DMEM+10% FBS. After that, the medium was changed to serum-free DMEM and cells were incubated for 3 hours. Then. test compounds were added at different concentrations 30 minutes before stimulation with bovine Type II Collagen at 50 μg/ml for further 3 hours. For DDR2 phospho-ELISA assay (DuoSet IC Human Phospho-DDR2; R&D Systems), protein extracts were obtained by adding 60 μl/well of lysis buffer prepared according to the manufacturer's instructions. Protein concentration in the samples was determined by BCA assay and the levels of phospho-DDR2 were determined following R&D Systems indications. Raw data were normalized to maximal inhibition control (0% for normalization) and positive control (100% for normalization; cells treated with […] collagen II) and IC50 parameters were calculated in GraphPad Prism 8.0 software, using sigmoidal dose-response curve fitting with variable slope.
In general terms: ELISA stands for enzyme-linked immunosorbent assay.

In assay [4] the target is T2, DDR1. The assay can be described thus: DDR1 binding assay (LanthaScreen Europium Kinase Binding assay). Also on record: purchased Carna Biosciences. The following applies: binding assay, 5 nM DDR1, 20 nM Kinase Tracer 178; Ki from IC50 by Cheng-Prusoff; read-out: Ki DDR1. The essentials:
as §1
In general terms: TR-FRET usually uses a lanthanide donor and a delayed reading to cut background.

Structures are written as SMILES.

From US20240391936A1, “TETRAHYDROTHIENO PYRIDINE DERIVATIVES AS DDRS INHIBITORS” (CHIESI FARMACEUTICI S.P.A., priority 2021, published 2024) come the findings set out here.

By Ki is commonly meant a measure of affinity in units of concentration, obtained from inhibition or displacement. For orientation: IC50 means the midpoint of a concentration-inhibition curve.

T2 sequence (Q08345 19-913): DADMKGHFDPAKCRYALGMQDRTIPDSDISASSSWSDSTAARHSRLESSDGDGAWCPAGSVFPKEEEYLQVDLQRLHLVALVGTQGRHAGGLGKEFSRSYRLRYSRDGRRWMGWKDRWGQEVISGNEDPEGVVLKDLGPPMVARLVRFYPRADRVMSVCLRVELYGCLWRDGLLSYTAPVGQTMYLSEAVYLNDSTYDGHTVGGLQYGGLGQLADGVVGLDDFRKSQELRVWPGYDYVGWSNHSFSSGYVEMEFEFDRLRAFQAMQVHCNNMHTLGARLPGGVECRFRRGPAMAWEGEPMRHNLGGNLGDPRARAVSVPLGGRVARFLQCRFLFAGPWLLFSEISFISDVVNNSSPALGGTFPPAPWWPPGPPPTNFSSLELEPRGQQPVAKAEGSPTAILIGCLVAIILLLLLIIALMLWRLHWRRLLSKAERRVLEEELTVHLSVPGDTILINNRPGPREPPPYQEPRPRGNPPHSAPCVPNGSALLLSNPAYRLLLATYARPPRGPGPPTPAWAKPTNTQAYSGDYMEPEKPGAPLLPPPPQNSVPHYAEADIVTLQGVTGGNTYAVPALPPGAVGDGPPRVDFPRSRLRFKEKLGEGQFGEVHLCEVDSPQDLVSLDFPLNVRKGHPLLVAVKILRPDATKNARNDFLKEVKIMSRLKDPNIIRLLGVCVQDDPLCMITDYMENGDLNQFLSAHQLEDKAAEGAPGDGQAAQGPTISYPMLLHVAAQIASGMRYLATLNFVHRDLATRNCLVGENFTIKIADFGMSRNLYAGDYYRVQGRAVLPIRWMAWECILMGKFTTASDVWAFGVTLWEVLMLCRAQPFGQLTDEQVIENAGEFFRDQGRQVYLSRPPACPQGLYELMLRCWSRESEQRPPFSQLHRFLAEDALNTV

`O=C(Nc1cc(F)cc(C(F)(F)F)c1)c1csc2c1CCN(Cc1cnc3[nH]ncc3c1)C2` [Example 67, 6-((1H-pyrazolo[3,4-b]pyridin-5-yl)methyl)-N-(3-fluoro-5-(trifluoromethyl)phenyl)-4,5,6,7-tetrahydrothieno[2,3-c]pyridine-3-carboxamide]: the Ki in assay [1] and in assay [4] was under 25 nM each time. Moreover, the values for the IC50 in assay [2] and in assay [3] were under 25 nM and 25 to 50 nM, respectively.
Turning to `O=C(Nc1cccc(C(F)(F)F)c1)c1csc2c1CCN(Cc1cnc3[nH]ccc3c1)C2` [Example 69, 6-((1H-pyrrolo[2,3-b]pyridin-5-yl)methyl)-N-(3-(trifluoromethyl)phenyl)-4,5,6,7-tetrahydrothieno[2,3-c]pyridine-3-carboxamide], the Ki in assay [1] and in assay [4] was under 25 nM each time. The IC50 was under 25 nM in assay [2] and 25 to 50 nM in assay [3].
For the compound `Cn1nc(C(C)(C)C)cc1NC(=O)c1csc2c1CCN(Cc1cnc3[nH]ccc3c1)C2` [Example 70, 6-((1H-pyrrolo[2,3-b]pyridin-5-yl)methyl)-N-(3-(tert-butyl)-1-methyl-1H-pyrazol-5-yl)-4,5,6,7-tetrahydrothieno[2,3-c]pyridine-3-carboxamide], the inhibition constant Ki in assay [1] and in assay [4] was under 25 nM throughout. The values for the IC50 in assay [2] and in assay [3] were under 25 nM and 25 to 50 nM, respectively.
On to `COc1ccc(NC(=O)c2csc3c2CCN(Cc2cnc4[nH]ccc4c2)C3)cc1C(F)(F)F` [Example 71, 6-((1H-pyrrolo[2,3-b]pyridin-5-yl)methyl)-N-(4-methoxy-3-(trifluoromethyl)phenyl)-4,5,6,7-tetrahydrothieno[2,3-c]pyridine-3-carboxamide], for which the inhibition constant (Ki) in assay [1] and in assay [4] was under 25 nM each time. For the same compound, the IC50 in assay [2] and in assay [3] was under 25 nM in each case.
For the compound `O=C(Nc1cccc(OC(F)(F)F)c1)c1csc2c1CCN(Cc1cnc3[nH]ccc3c1)C2` [Example 72, 6-((1H-pyrrolo[2,3-b]pyridin-5-yl)methyl)-N-(3-(trifluoromethoxy)phenyl)-4,5,6,7-tetrahydrothieno[2,3-c]pyridine-3-carboxamide], the Ki in assay [1] and in assay [4] was under 25 nM each time. Besides, the 50% inhibitory concentration (IC50) in assay [2] and in assay [3] was under 25 nM each time.
With `O=C(Nc1cc(F)cc(C(F)(F)F)c1)c1csc2c1CCN(Cc1cnc3[nH]ccc3c1)C2` [Example 73, 6-((1H-pyrrolo[2,3-b]pyridin-5-yl)methyl)-N-(3-fluoro-5-(trifluoromethyl)phenyl)-4,5,6,7-tetrahydrothieno[2,3-c]pyridine-3-carboxamide], the results for the inhibition constant (Ki) in assay [1] and in assay [4] were 25 to 50 nM and under 25 nM, respectively. Also, the IC50 in assay [2] and in assay [3] was under 25 nM in each case.
As for `Cc1cn(-c2cc(NC(=O)c3csc4c3CCN(C(=O)c3cnc5ccccn35)C4)cc(C(F)(F)F)c2)cn1` [Example 74, 6-(imidazo[1,2-a]pyridine-3-carbonyl)-N-(3-(4-methyl-1H-imidazol-1-yl)-5-(trifluoromethyl)phenyl)-4,5,6,7-tetrahydrothieno[2,3-c]pyridine-3-carboxamide], the Ki in assay [1] and in assay [4] was under 25 nM in each case. The IC50 in assay [2] and in assay [3] was under 25 nM throughout.
For the compound `Cc1ccc(-n2nc(C(C)(C)C)cc2NC(=O)c2csc3c2CCN(Cc2cnc4[nH]ncc4c2)C3)cc1` [Example 75, 6-((1H-pyrazolo[3,4-b]pyridin-5-yl)methyl)-N-(3-(tert-butyl)-1-(p-tolyl)-1H-pyrazol-5-yl)-4,5,6,7-tetrahydrothieno[2,3-c]pyridine-3-carboxamide], the Ki in assay [1] and in assay [4] was under 25 nM each time. The IC50 in assay [2] and in assay [3] was under 25 nM in each case.
For the compound `Cc1n[nH]c2ncc(CN3CCc4c(C(=O)Nc5cc(C(C)(C)C)nn5C)csc4C3)cc12` [Example 78, N-(3-(tert-butyl)-1-methyl-1H-pyrazol-5-yl)-6-((3-methyl-1H-pyrazolo[3,4-b]pyridin-5-yl)methyl)-4,5,6,7-tetrahydrothieno[2,3-c]pyridine-3-carboxamide], the Ki in assay [1] and in assay [4] was under 25 nM each time. For the same compound, the half-maximal inhibitory concentration (IC50) in assay [2] and in assay [3] was under 25 nM in each case.
In the case of `O=C(Nc1cccc(C(F)(F)F)c1)c1csc2c1CCN(Cc1cnc3cnccn13)C2` [Example 84, 6-(imidazo[1,2-a]pyrazin-3-ylmethyl)-N-(3-(trifluoromethyl)phenyl)-4,5,6,7-tetrahydrothieno[2,3-c]pyridine-3-carboxamide], the Ki in assay [1] and in assay [4] was under 25 nM each time. The IC50 in assay [2] and in assay [3] was under 25 nM each time.
On to `O=C(Nc1cccc(C(F)(F)F)c1)c1csc2c1CCN(Cc1cnc3[nH]ncc3c1)C2` [Example 85, 6-((1H-pyrazolo[3,4-b]pyridin-5-yl)methyl)-N-(3-(trifluoromethyl)phenyl)-4,5,6,7-tetrahydrothieno[2,3-c]pyridine-3-carboxamide], for which the inhibitory constant (Ki) in assay [1] and in assay [4] was under 25 nM in each case. Moreover, the IC50 in assay [2] and in assay [3] was under 25 nM in each case.
For the compound `O=C(Nc1cccc(C(F)(F)F)c1)c1csc2c1CCN(Cc1ccnc3[nH]ccc13)C2` [Example 86, 6-((1H-pyrrolo[2,3-b]pyridin-4-yl)methyl)-N-(3-(trifluoromethyl)phenyl)-4,5,6,7-tetrahydrothieno[2,3-c]pyridine-3-carboxamide], the Ki in assay [1] and in assay [4] was under 25 nM in each case. The half-maximal inhibitory concentration (IC50) in assay [2] and in assay [3] was under 25 nM throughout.
Take `O=C(Nc1cccc(C(F)(F)F)c1)c1csc2c1CCN(C(=O)c1cnc3cnccn13)C2` [Example 90, 6-(imidazo[1,2-a]pyrazine-3-carbonyl)-N-(3-(trifluoromethyl)phenyl)-4,5,6,7-tetrahydrothieno[2,3-c]pyridine-3-carboxamide]: the inhibition constant Ki in assay [1] and in assay [4] was under 25 nM in each case. The concentration for half-maximal inhibition (IC50) in assay [2] and in assay [3] was under 25 nM throughout.
As for `O=C(Nc1cccc(C(F)(F)F)c1)c1csc2c1CCN(C(=O)c1cnn3ccncc13)C2` [Example 93, 6-(pyrazolo[1,5-a]pyrazine-3-carbonyl)-N-(3-(trifluoromethyl)phenyl)-4,5,6,7-tetrahydrothieno[2,3-c]pyridine-3-carboxamide], the Ki in assay [1] and in assay [4] was under 25 nM in each case. Also, the IC50 in assay [2] and in assay [3] was under 25 nM in each case.
For the compound `Cc1cn(-c2cc(NC(=O)c3csc4c3CCN(C(=O)c3cnc5ccccn35)C4C)cc(C(F)(F)F)c2)cn1` (stereo not drawn) [Example 98, 6-(imidazo[1,2-a]pyridine-3-carbonyl)-7-methyl-N-(3-(4-methyl-1H-imidazol-1-yl)-5-(trifluoromethyl)phenyl)-4,5,6,7-tetrahydrothieno[2,3-c]pyridine-3-carboxamide], the inhibition constant Ki in assay [1] and in assay [4] was under 25 nM throughout. In addition, the IC50 in assay [2] and in assay [3] was under 25 nM throughout.
